Source: US10604526B2, “Chemokine receptor modulators and uses thereof” (RAPT THERAPEUTICS, INC., priority 2016, dated 2020)

Target: T1, hCCR4 (Homo sapiens, UniProt P51679)
T1 sequence (P51679 1-360): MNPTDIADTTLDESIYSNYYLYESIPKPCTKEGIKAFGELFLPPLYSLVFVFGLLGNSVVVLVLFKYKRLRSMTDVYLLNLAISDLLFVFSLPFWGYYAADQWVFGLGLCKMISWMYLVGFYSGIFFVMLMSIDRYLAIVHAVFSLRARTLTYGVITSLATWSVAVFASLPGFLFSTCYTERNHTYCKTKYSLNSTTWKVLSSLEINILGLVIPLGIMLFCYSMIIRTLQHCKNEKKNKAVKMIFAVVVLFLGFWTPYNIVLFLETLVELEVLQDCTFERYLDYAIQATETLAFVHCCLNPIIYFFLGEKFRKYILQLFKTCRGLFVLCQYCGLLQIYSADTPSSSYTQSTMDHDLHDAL
Assay: Calcium flux assay
Format: cell-based
Conditions: Chem5-hCCR4 cells, CCL22 at EC80 of 1.5 nM, FLIPR Calcium 6 dye; read-out: Potency (IC50)
Outline: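 Chem5 cells expressing hCCR4 were serum-starved for 2 h, loaded with Calcium 6 dye plus 2.5 mM probenecid, then given compound for 1 h at 37 °C (0.5% DMSO). CCL22 was added from a 7.5 nM working solution (5× EC80 of 1.5 nM). IC50 came from ΔF/Fmin (485/525 nm) by 4-parameter fit.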

| SMILES | IC50 |
| --- | --- |
| C[C@H](c1ccc(Cl)cc1Cl)n1nc(C#N)c2ncc(N3CC([C@@H]4CCCN(CCCC(=O)N(C)C)C4)C3)nc21 (single isomer, unassigned) [Example 74] | 100 to 500 nM |
| C[C@H](c1ccc(Cl)cc1Cl)n1nc(C#N)c2ncc(N3CC([C@H]4CCCN(CCCC(=O)N(C)C)C4)C3)nc21 (single isomer, unassigned) [Example 75] | < 100 nM |
| CC(C)N1CCC[C@@H](C2CN(c3cnc4c(C#N)nn([C@H](C)c5ccc(Cl)cc5Cl)c4n3)C2)C1 (single isomer, unassigned) [Example 76] | 100 to 500 nM |
| CC(C)N1CCC[C@H](C2CN(c3cnc4c(C#N)nn([C@H](C)c5ccc(Cl)cc5Cl)c4n3)C2)C1 (single isomer, unassigned) [Example 77] | < 100 nM |
| C[C@H](c1ccc(Cl)cc1Cl)n1nc(C#N)c2ncc(N3CC([C@H]4CCCN(CCCC(N)=O)C4)C3)nc21 (single isomer, unassigned) [Example 78] | < 100 nM |
| C[C@H](c1ccc(Cl)cc1Cl)n1nc(C#N)c2ncc(N3CC([C@@H]4CCCN(CCCC(N)=O)C4)C3)nc21 (single isomer, unassigned) [Example 79] | 100 to 500 nM |
| C[C@H](c1ccc(Cl)cc1Cl)n1nc(C#N)c2ncc(N3CC([C@H]4CCCN(Cc5ncc[nH]5)C4)C3)nc21 (single isomer, unassigned) [Example 80] | < 100 nM |
| C[C@H](c1ccc(Cl)cc1Cl)n1nc(C#N)c2ncc(N3CC([C@@H]4CCCN(Cc5ncc[nH]5)C4)C3)nc21 (single isomer, unassigned) [Example 81] | 100 to 500 nM |
| COC(=O)NCCN1CCC[C@H](C2CN(c3cnc4c(C)nn([C@H](C)c5ccc(Cl)cc5Cl)c4n3)C2)C1 (single isomer, unassigned) [Example 84] | < 100 nM |
| COC(=O)NCCN1CCC[C@@H](C2CN(c3cnc4c(C)nn([C@H](C)c5ccc(Cl)cc5Cl)c4n3)C2)C1 (single isomer, unassigned) [Example 85] | < 100 nM |
| CC(=O)NCCN1CCC[C@@H](C2CN(c3cnc4c(C(F)(F)F)nn([C@H](C)c5ccc(Cl)cc5Cl)c4n3)C2)C1 (single isomer, unassigned) [Example 86] | 100 to 500 nM |
| CC(=O)NCCN1CCCC(C2CN(c3cnc4c(C(F)(F)F)nn([C@H](C)c5ccc(Cl)cc5Cl)c4n3)C2)C1 (single isomer, unassigned) [Example 87] | < 100 nM |
| CC(C)C(=O)NCCN1CCC[C@@H](C2CN(c3cnc4c(C(F)(F)F)nn([C@H](C)c5ccc(Cl)cc5Cl)c4n3)C2)C1 (single isomer, unassigned) [Example 88] | 100 to 500 nM |
| CC(C)C(=O)NCCN1CCC[C@H](C2CN(c3cnc4c(C(F)(F)F)nn([C@H](C)c5ccc(Cl)cc5Cl)c4n3)C2)C1 (single isomer, unassigned) [Example 89] | < 100 nM |
| Cc1nn([C@H](C)c2ccc(Cl)cc2Cl)c2nc(N3CC([C@H]4CCCN(CCNC(=O)C(C)C)C4)C3)cnc12 (single isomer, unassigned) [Example 90] | < 100 nM |
| Cc1nn([C@H](C)c2ccc(Cl)cc2Cl)c2nc(N3CC([C@@H]4CCCN(CCNC(=O)C(C)C)C4)C3)cnc12 (single isomer, unassigned) [Example 91] | < 100 nM |
| CC(=O)NCCN1CCC[C@H](C2CN(c3cnc4c(C#N)nn([C@H](C)c5ccc(Cl)cc5Cl)c4n3)C2)C1 (single isomer, unassigned) [Example 92] | < 100 nM |
| CC(=O)NCCN1CCC[C@@H](C2CN(c3cnc4c(C#N)nn([C@H](C)c5ccc(Cl)cc5Cl)c4n3)C2)C1 (single isomer, unassigned) [Example 93] | < 100 nM |
| C[C@H](c1ccc(Cl)cc1Cl)n1nc(C#N)c2ncc(N3CC([C@@H]4CCN(CCCO)C4)C3)nc21 (single isomer, unassigned) [Example 94] | 100 to 500 nM |
| C[C@H](c1ccc(Cl)cc1F)n1nc(C#N)c2ncc(N3CC([C@H]4CCCN(CCO)C4)C3)nc21 [Example 55, 1-((R)-1-(4-chloro-2-fluorophenyl)ethyl)-6-(3-((R)-1-(2-hydroxyethyl)piperidin-3-yl)azetidin-1-yl)-1H-pyrazolo[3,4-b]pyrazine-3-carbonitrile] | < 100 nM |

The remaining lines, values ahead:

| IC50 | SMILES |
| --- | --- |
| < 100 nM | C[C@H](c1ccc(Cl)cc1Cl)n1nc(C#N)c2ncc(N3CC([C@H]4CCN(CCCO)C4)C3)nc21 (single isomer, unassigned) [Example 95] |
| 100 to 500 nM | Cc1nn([C@H](C)c2ccc(Cl)cc2Cl)c2nc(N3CC([C@@H]4CCCN(CCNS(=O)(=O)C(C)C)C4)C3)cnc12 (single isomer, unassigned) [Example 96] |
| < 100 nM | Cc1nn([C@H](C)c2ccc(Cl)cc2Cl)c2nc(N3CC(C4CCCN(CCNS(=O)(=O)C(C)C)C4)C3)cnc12 (single isomer, unassigned) [Example 97] |
| 100 to 500 nM | Cc1nn([C@H](C)c2ccc(Cl)cc2Cl)c2nc(N3CC([C@@H]4CCCN(CCNS(C)(=O)=O)C4)C3)cnc12 (single isomer, unassigned) [Example 98] |
| < 100 nM | Cc1nn([C@H](C)c2ccc(Cl)cc2Cl)c2nc(N3CC([C@H]4CCCN(CCNS(C)(=O)=O)C4)C3)cnc12 (single isomer, unassigned) [Example 99] |
| < 100 nM | CC(=O)NCCN1CCC[C@H](C2CN(c3cnc4c(C)nn([C@H](C)c5ccc(Cl)cc5Cl)c4n3)C2)C1 (single isomer, unassigned) [Example 100] |
| < 100 nM | CC(=O)NCCN1CCC[C@@H](C2CN(c3cnc4c(C)nn([C@H](C)c5ccc(Cl)cc5Cl)c4n3)C2)C1 (single isomer, unassigned) [Example 101] |
| < 100 nM | C[C@H](c1ccc(Cl)cc1Cl)n1nc(C#N)c2ncc(N3CC([C@H]4CCCN(CCCS(N)(=O)=O)C4)C3)nc21 (single isomer, unassigned) [Example 107] |
| 100 to 500 nM | C[C@H](c1ccc(Cl)cc1Cl)n1nc(C#N)c2ncc(N3CC([C@@H]4CCCN(CCCS(N)(=O)=O)C4)C3)nc21 (single isomer, unassigned) [Example 108] |
| < 100 nM | CC(C)S(=O)(=O)NCCN1CCC[C@H](C2CN(c3cnc4c(C(F)(F)F)nn([C@H](C)c5ccc(Cl)cc5Cl)c4n3)C2)C1 (single isomer, unassigned) [Example 109] |
| 100 to 500 nM | CC(C)S(=O)(=O)NCCN1CCC[C@@H](C2CN(c3cnc4c(C(F)(F)F)nn([C@H](C)c5ccc(Cl)cc5Cl)c4n3)C2)C1 (single isomer, unassigned) [Example 110] |
| 100 to 500 nM | C[C@H](c1ccc(Cl)cc1Cl)n1nc(C#N)c2ncc(N3CC([C@@H]4CCCN(Cc5cnc[nH]5)C4)C3)nc21 (single isomer, unassigned) [Example 111] |
| < 100 nM | C[C@H](c1ccc(Cl)cc1Cl)n1nc(C#N)c2ncc(N3CC([C@H]4CCCN(Cc5cnc[nH]5)C4)C3)nc21 (single isomer, unassigned) [Example 112] |
| 100 to 500 nM | Cc1nn([C@H](C)c2ccc(Cl)cc2Cl)c2nc(N3CC([C@@H]4CCCN(CCCS(C)(=O)=O)C4)C3)cnc12 (single isomer, unassigned) [Example 113] |
| < 100 nM | Cc1nn([C@H](C)c2ccc(Cl)cc2Cl)c2nc(N3CC([C@H]4CCCN(CCCS(C)(=O)=O)C4)C3)cnc12 (single isomer, unassigned) [Example 114] |
| 100 to 500 nM | C[C@H](c1ccc(Cl)cc1Cl)n1nc(C(F)(F)F)c2ncc(N3CC([C@@H]4CCCN(CCCS(C)(=O)=O)C4)C3)nc21 (single isomer, unassigned) [Example 115] |
| < 100 nM | C[C@H](c1ccc(Cl)cc1Cl)n1nc(C(F)(F)F)c2ncc(N3CC([C@H]4CCCN(CCCS(C)(=O)=O)C4)C3)nc21 (single isomer, unassigned) [Example 116] |
| 100 to 500 nM | CC(C)N1CCC[C@H](C2CN(c3cnc4c(C(F)(F)F)nn([C@H](C)c5ccc(Cl)cc5Cl)c4n3)C2)C1 [Example 102, 1-((R)-1-(2,4-dichlorophenyl)ethyl)-6-(3-((R)-1-isopropylpiperidin-3-yl)azetidin-1-yl)-3-(trifluoromethyl)-1H-pyrazolo[3,4-b]pyrazine] |
| < 100 nM | C[C@H](c1ccc(Cl)cc1Cl)n1nc(C(F)(F)F)c2ncc(N3CC([C@H]4CCCN(C[C@@H](C)O)C4)C3)nc21 [Example 103, (R)-1-((R)-3-(1-(1-((R)-1-(2,4-dichlorophenyl)ethyl)-3-(trifluoromethyl)-1H-pyrazolo[3,4-b]pyrazin-6-yl)azetidin-3-yl)piperidin-1-yl)propan-2-ol] |
| < 100 nM | C[C@H](O)CN1CCC[C@H](C2CN(c3cnc4c(C(F)(F)F)nn([C@H](C)c5ccc(Cl)cc5Cl)c4n3)C2)C1 [Example 104, (S)-1-((R)-3-(1-(1-((R)-1-(2,4-dichlorophenyl)ethyl)-3-(trifluoromethyl)-1H-pyrazolo[3,4-b]pyrazin-6-yl)azetidin-3-yl)piperidin-1-yl)propan-2-ol] |
| < 100 nM | CC(=O)N[C@H](C)CN1CCC[C@H](C2CN(c3cnc4c(C(F)(F)F)nn([C@H](C)c5ccc(Cl)cc5Cl)c4n3)C2)C1 [Example 105, N—((R)-1-((R)-3-(1-(1-((R)-1-(2,4-dichlorophenyl)ethyl)-3-(trifluoromethyl)-1H-pyrazolo[3,4-b]pyrazin-6-yl)azetidin-3-yl)piperidin-1-yl)propan-2-yl)acetamide] |
